Source: ChEMBL document CHEMBL1201862, “PubChem BioAssay data set” (2004)
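How tested: cells in 96-well plates exposed to compound for 48 hours at five concentrations. GI50 marks 50% less growth.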 Active and inactive are the calls of the source. No stated cut-off is given here; in the data, active = GI50 up to about 1.1 µM and inactive = higher.

How the values were obtained:
Assay in all cases: NCI tumour cell line growth inhibition, 48 h
EKVX = tested on: EKVX
HCC 2998 = tested on: HCC 2998
HCT-116 = tested on: HCT-116
HCT-15 = tested on: HCT-15
HT-29 = tested on: HT-29
IGROV-1 = tested on: IGROV-1
LOX IMVI = tested on: LOX IMVI
MDA-MB-435 = tested on: MDA-MB-435
NCI-H226 = tested on: NCI-H226
NCI-H23 = tested on: NCI-H23
OVCAR-5 = tested on: OVCAR-5
OVCAR-8 = tested on: OVCAR-8
RPMI-8226 = tested on: RPMI-8226
SF-539 = tested on: SF-539
SK-MEL-2 = tested on: SK-MEL-2
SK-MEL-5 = tested on: SK-MEL-5
SW-620 = tested on: SW-620
K562 = tested on: K562
NCI-H460 = tested on: NCI-H460
SNB-75 = tested on: SNB-75

| SMILES | GI50 (EKVX) | GI50 (HCC 2998) | GI50 (HCT-116) | GI50 (HCT-15) [µM] | GI50 (HT-29) | GI50 (IGROV-1) | GI50 (LOX IMVI) | GI50 (MDA-MB-435) | GI50 (NCI-H226) | GI50 (NCI-H23) | GI50 (OVCAR-5) | GI50 (OVCAR-8) | GI50 (RPMI-8226) | GI50 (SF-539) | GI50 (SK-MEL-2) | GI50 (SK-MEL-5) | GI50 (SW-620) | GI50 (K562) | GI50 (NCI-H460) | GI50 (SNB-75) |
| --- | --- | --- | --- | --- | --- | --- | --- | --- | --- | --- | --- | --- | --- | --- | --- | --- | --- | --- | --- | --- |
| O=C1NC(N2CCCCC2)=N/C1=C\c1ccco1 | 78.2 µM (inactive) | > 100 µM (inactive) | > 100 µM (inactive) | > 100 | 30.3 µM (inactive) | 54.7 µM (inactive) | > 100 µM (inactive) | > 100 µM (inactive) | 67.9 µM (inactive) | > 100 µM (inactive) | > 100 µM (inactive) | > 100 µM (inactive) | > 100 µM (inactive) | > 100 µM (inactive) | > 100 µM (inactive) | > 100 µM (inactive) | > 100 µM (inactive) | – | – | – |
| CC1=NN(c2ccccc2)C(=O)C1/N=N/c1ccc(S(N)(=O)=O)cc1 (stereo not drawn) | > 100 µM (inactive) | – | > 100 µM (inactive) | > 100 | > 100 µM (inactive) | > 100 µM (inactive) | > 100 µM (inactive) | > 100 µM (inactive) | > 100 µM (inactive) | > 100 µM (inactive) | > 100 µM (inactive) | > 100 µM (inactive) | > 100 µM (inactive) | > 100 µM (inactive) | > 100 µM (inactive) | > 100 µM (inactive) | > 100 µM (inactive) | > 100 µM (inactive) | > 100 µM (inactive) | > 100 µM (inactive) |
| Cc1ccc(S(=O)(=O)OC2CC(C(C)(C)C)CCC2c2ccccc2)cc1 (stereo not drawn) | > 100 µM (inactive) | – | 50 µM (inactive) | > 100 | 32.1 µM (inactive) | 72.8 µM (inactive) | > 100 µM (inactive) | 66.1 µM (inactive) | > 100 µM (inactive) | > 100 µM (inactive) | > 100 µM (inactive) | > 100 µM (inactive) | 17.9 µM (inactive) | > 100 µM (inactive) | > 100 µM (inactive) | 79.8 µM (inactive) | > 100 µM (inactive) | 53.5 µM (inactive) | 78.7 µM (inactive) | 27.9 µM (inactive) |
| COc1ccc(Cn2nc(OCc3ccccn3)c3cc([N+](=O)[O-])ccc32)cc1 | – | > 100 µM (inactive) | – | > 100 | > 100 µM (inactive) | > 100 µM (inactive) | > 100 µM (inactive) | > 100 µM (inactive) | > 100 µM (inactive) | > 100 µM (inactive) | > 100 µM (inactive) | 63.1 µM (inactive) | > 100 µM (inactive) | 33.3 µM (inactive) | 49.5 µM (inactive) | > 100 µM (inactive) | > 100 µM (inactive) | > 100 µM (inactive) | > 100 µM (inactive) | – |
| N#CC(c1ccccc1)(c1ccccc1)[C@@H](c1ccccc1)[C@H](Cc1ccccc1)NS(=O)(=O)c1ccccc1 | > 100 µM (inactive) | > 100 µM (inactive) | > 100 µM (inactive) | > 100 | > 100 µM (inactive) | > 100 µM (inactive) | > 100 µM (inactive) | > 100 µM (inactive) | – | > 100 µM (inactive) | > 100 µM (inactive) | > 100 µM (inactive) | 10.3 µM (inactive) | > 100 µM (inactive) | > 100 µM (inactive) | 96.2 µM (inactive) | > 100 µM (inactive) | > 100 µM (inactive) | 66.7 µM (inactive) | > 100 µM (inactive) |
| O=C(NNS(=O)(=O)c1ccc(Br)cc1)c1ccc(Cl)cc1NC(=O)C12CC3CC(CC(C3)C1)C2 | 11.3 µM (inactive) | – | 21.2 µM (inactive) | 15.6 | 11.8 µM (inactive) | 11.9 µM (inactive) | 14.1 µM (inactive) | 12.4 µM (inactive) | 16.1 µM (inactive) | 14.2 µM (inactive) | 18.2 µM (inactive) | 13.6 µM (inactive) | 4.49 µM (inactive) | 17.3 µM (inactive) | 11.8 µM (inactive) | 10.9 µM (inactive) | 19.5 µM (inactive) | 6.34 µM (inactive) | 8.34 µM (inactive) | 14.2 µM (inactive) |
| CN(C)CCCN1c2ccccc2Sc2cnccc21 | > 100 µM (inactive) | – | 43.7 µM (inactive) | > 100 | 58.6 µM (inactive) | > 100 µM (inactive) | 65.2 µM (inactive) | 69.7 µM (inactive) | 83.2 µM (inactive) | – | > 100 µM (inactive) | > 100 µM (inactive) | 79.1 µM (inactive) | 54.6 µM (inactive) | 28.4 µM (inactive) | 79.8 µM (inactive) | > 100 µM (inactive) | 68.5 µM (inactive) | 32.1 µM (inactive) | > 100 µM (inactive) |
